The test system of this experiment is MUC5AC-containing stomach tissue. Description: Ex vivo fluorescent binding to stomach tissue. Also noted: species or system porcine. Conditions: MUC5AC-selective peptides to stomach. From the text:
After identifying the peptide hits for each mucin, we tested their binding in an ex vivo setting (Figure S1), evaluating their interaction with mucin-containing porcine tissue and semiquantitatively representing it through fluorescent imaging (Figure 3a). The cyclic peptides were synthesized and conjugated to a fluorophore, Alexa Fluor 647 (AF647), at the N-terminus to allow fluorescent imaging to be used to semiquantitatively measure the peptides’ ex vivo tissue binding, compared to free AF647 and AF647 conjugated to wheat germ agglutinin (WGA), a known lectin for glycoproteins.[40] […] Porcine GI tissue was used due to its similarity in mucin expression compared to human GI tissue and its capacity to source large surface areas of tissue for experiments.[41],[42] Representative IVIS images are shown in Figure 3b-e, where the first four columns represent the four identified peptides (M2.1–M2.4 in Figure 3b,c, M5.1–M5.4 in Figure 3d,e), the fifth column represents WGA-AF647, and the sixth column represents AF647. The “score” results for the peptide ligands are presented in Figure 3f,g for the mucins of interest, with Tables S2–S5 and Figure S3 detailing results for the other tissues (the equation for calculating the “score” is found in the Materials and Methodssection). […] We also examined selectivity by incubating peptides on nontarget tissues. Figure 3h,i depicts the “selectivity” results for the MUC2-selective and MUC5AC-selective peptides, respectively. Selectivity was calculated by determining the ratio of the “score” for a particular mucin to the sum of the “scores” for all mucins (see the Materials and Methods section for the equation used).
The top-performing hits from phage display were tested on ex vivo segments of porcine mucin-containing tissues (jejunal, stomach, and esophageal tissues) obtained from local abattoirs or laboratory-maintained pigs. Tissue was used either immediately after acquisition or after storage at −80 °C; tissue was used at most 1 week after acquisition and storage at −80 °C. After acquisition and equilibration to room temperature, the tissue was washed twice with 25 mL (each) of cold 1× PBS to remove undigested food and other debris. After washing and cleaning, the tissue was mounted between two magnetic plates with holes corresponding to a 48-well plate, as previously described,[72] such that the luminal side of the tissue was facing up (Figure S1). After the tissue was mounted, the amount of peptide/protein corresponding to 40 μg of AF647 was suspended in 200 μL of 1× PBS and added to the wells created by the magnetic plates. This was done 3× for each formulation to perform the experiment in triplicate. In addition, plain 1× PBS was added to one well to serve as the background measurement. […] After washing was complete, fluorescence imaging was performed using an IVIS Spectrum fluorescent imaging system (PerkinElmer), with an automatically calculated exposure time (usually ∼1 s), a 20 cm × 20 cm field of view, and an excitation/emission of 640/680 nm, respectively. The imaging results were analyzed using Living Image software to calculate the total fluorescence intensity for each well, and the results for each hit or control were averaged across different wells. […]
To better account for tissue-to-tissue variability, the results for each trial were reported as scores rather than using the raw fluorescence intensity. […]

Bridge positions count the residues as written; N and C are the ends. Ends that are not written are not given here.

Here are results for 1 sequence from article PMC12020424, “Identification and Validation of Cyclic Peptides with Mucin-Selective, Location-Specific Binding in the Gastrointestinal Tract” (ACS Nano, 2025).

As to “CTDKASSSC (disulfide 1-9 (inferred)) [Peptide M5.1, CX7C cyclic peptide hit for MUC5AC]”, the “Overall nanoparticle “score”” value (scaled between free AF647 (0) and WGA-AF647 (1), mean across trials n = 3) amounted to 0.800. The sequence further returned a Selectivity (score for MUC5AC tissue / sum of scores for all mucins, n = 3) of 0.370.
